Assay [1] relates to Candida albicans. Nature of the assay: Antifungal activity against Candida albicans 205 harboring Fks1p FLTLPLRDP mutant protein. The class given is functional.
The target of assay [2] is T1, 1,3-beta-D-glucan synthase subunit 1 (Candida tropicalis, UniProt B6S6L8, S80P). Description: Inhibition of Candida tropicalis T19 blood stream isolate glucan synthase subunit FKS1p with FLTLS/PLRDP mutant at monophasic kinetics.
Assay [3] addresses T1, 1,3-beta-D-glucan synthase subunit 1. Description: Inhibition of Candida tropicalis T19 blood stream isolate glucan synthase subunit FKS1p with FLTLS/PLRDP mutant at biphasic kinetics.
The test system of assay [4] is Candida tropicalis. Nature of the assay: Antifungal activity against Candida tropicalis T19 blood stream isolate harboring Fks1p FLTLS/PLRDP mutant protein. The format is functional.
Assay [5] concerns the target T1, 1,3-beta-D-glucan synthase subunit 1. Nature of the assay: Inhibition of Candida tropicalis T3 blood stream isolate glucan synthase subunit FKS1p with FLTLS/PLRDP mutant at monophasic kinetics.
Assay [6] is described as follows: Inhibition of Candida tropicalis T7 blood stream isolate glucan synthase subunit FKS1p at monophasic kinetics.
Assay [7] can be described thus: Inhibition of Candida albicans 205 glucan synthase subunit FKS1p FLTLPLRDP mutant at monophasic kinetics.
Assay [8] relates to Candida tropicalis. Description: Antifungal activity against Candida tropicalis T3 blood stream isolate harboring Fks1p FLTLS/PLRDP mutant protein. The class given is functional.
Assay [9] concerns the target 1,3-beta-D-glucan synthase subunit 1 (Candida tropicalis, UniProt B6S6L8, F76L). Description: Inhibition of Candida tropicalis T26 blood stream isolate glucan synthase subunit FKS1p with LLTLSLRDP mutant at monophasic kinetics.
A short description of assay [10]: Inhibition of Candida tropicalis ATCC 750 glucan synthase subunit FKS1p at monophasic kinetics.
Assay [11] concerns Candida tropicalis. Nature of the assay: Antifungal activity against Candida tropicalis T26 blood stream isolate harboring Fks1p LLTLSLRDP mutant protein. The class given is functional.
The test system of assay [12] is Candida albicans. Description: Antifungal activity against Candida albicans ATCC 90028. The class given is functional.
The test system of assay [13] is Candida tropicalis. Description: Antifungal activity against Candida tropicalis ATCC 750. The class given is functional.
In assay [14] the test system is Candida tropicalis. Description: Antifungal activity against Candida tropicalis T7 blood stream isolate. The class given is functional.
The next assay concerns the target T2, Beta-1,3-glucan synthase (Candida albicans, UniProt O13383).
T2 sequence (O13383 whole entry): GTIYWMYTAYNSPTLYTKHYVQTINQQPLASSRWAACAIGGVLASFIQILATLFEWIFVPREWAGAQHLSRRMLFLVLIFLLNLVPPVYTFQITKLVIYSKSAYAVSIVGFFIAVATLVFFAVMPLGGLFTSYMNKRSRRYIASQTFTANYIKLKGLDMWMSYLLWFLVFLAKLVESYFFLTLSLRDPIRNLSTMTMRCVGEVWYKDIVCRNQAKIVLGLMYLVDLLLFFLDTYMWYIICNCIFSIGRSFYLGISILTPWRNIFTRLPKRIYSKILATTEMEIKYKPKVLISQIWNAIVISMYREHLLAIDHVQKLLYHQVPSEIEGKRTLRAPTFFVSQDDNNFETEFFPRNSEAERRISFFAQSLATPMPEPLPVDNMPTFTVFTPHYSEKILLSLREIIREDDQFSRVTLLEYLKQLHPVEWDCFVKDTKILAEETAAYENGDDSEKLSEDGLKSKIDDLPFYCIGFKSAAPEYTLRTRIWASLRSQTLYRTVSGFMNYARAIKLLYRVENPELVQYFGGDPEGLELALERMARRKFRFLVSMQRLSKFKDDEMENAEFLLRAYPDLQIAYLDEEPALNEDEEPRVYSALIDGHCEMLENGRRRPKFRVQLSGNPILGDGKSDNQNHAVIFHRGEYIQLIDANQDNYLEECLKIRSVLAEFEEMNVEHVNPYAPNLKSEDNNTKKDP
Description: Inhibition of Candida albicans ATCC 90028 glucan synthase at monophasic kinetics.

Assay [15] has as its target T1, 1,3-beta-D-glucan synthase subunit 1. Nature of the assay: Inhibition of Candida tropicalis T3 blood stream isolate glucan synthase subunit FKS1p with FLTLS/PLRDP mutant at biphasic kinetics.

Molecules are shown by their SMILES. Values after ≈ are worked out from the molar mass of the structure shown. *1 amine or outer side, *2 acyl side, *3 side chain or, on linkers, in order; H or OH if unused. Where a SMILES comes first, the peptide text is derived from it. Bridges are numbered along the chain shown (N, C = ends). [ ]: non-standard residue; d: D form. The star is where a group is joined. hTyr(3S-OH,4S-OH,3'-OSO3H) = N[C@H](C(=O)O)[C@H](O)[C@@H](O)c1ccc(O)c(OS(=O)(=O)O)c1; pTerphenylCO(4''-OnC5H11) = CCCCCOc1ccc(-c2ccc(-c3ccc(C(=O)*)cc3)cc2)cc1; Orn(4R-OH,5R-OH) = O=C([C@H](C[C@@H](O)[C@@H](O)N[*:3])N[*:1])[*:2]; hTyr(3S-OH,4S-OH) = N[C@H](C(=O)O)[C@H](O)[C@@H](O)c1ccc(O)cc1; Pro(3S-OH,4S-Me) = C[C@H]1CN[C@H](C(=O)O)[C@H]1O; X1 = CCCCCOc1ccc(-c2cc(-c3ccc(C(=O)*)cc3)no2)cc1; Gln(3R-OH) = NC(=O)C[C@@H](O)[C@H](N)C(=O)O; Hyp = O=C(O)[C@@H]1C[C@@H](O)CN1

1,3-beta-D-glucan synthase subunit 1 (Candida tropicalis, UniProt B6S6L8, F76L), sequence (B6S6L8 entry or part of it F76L): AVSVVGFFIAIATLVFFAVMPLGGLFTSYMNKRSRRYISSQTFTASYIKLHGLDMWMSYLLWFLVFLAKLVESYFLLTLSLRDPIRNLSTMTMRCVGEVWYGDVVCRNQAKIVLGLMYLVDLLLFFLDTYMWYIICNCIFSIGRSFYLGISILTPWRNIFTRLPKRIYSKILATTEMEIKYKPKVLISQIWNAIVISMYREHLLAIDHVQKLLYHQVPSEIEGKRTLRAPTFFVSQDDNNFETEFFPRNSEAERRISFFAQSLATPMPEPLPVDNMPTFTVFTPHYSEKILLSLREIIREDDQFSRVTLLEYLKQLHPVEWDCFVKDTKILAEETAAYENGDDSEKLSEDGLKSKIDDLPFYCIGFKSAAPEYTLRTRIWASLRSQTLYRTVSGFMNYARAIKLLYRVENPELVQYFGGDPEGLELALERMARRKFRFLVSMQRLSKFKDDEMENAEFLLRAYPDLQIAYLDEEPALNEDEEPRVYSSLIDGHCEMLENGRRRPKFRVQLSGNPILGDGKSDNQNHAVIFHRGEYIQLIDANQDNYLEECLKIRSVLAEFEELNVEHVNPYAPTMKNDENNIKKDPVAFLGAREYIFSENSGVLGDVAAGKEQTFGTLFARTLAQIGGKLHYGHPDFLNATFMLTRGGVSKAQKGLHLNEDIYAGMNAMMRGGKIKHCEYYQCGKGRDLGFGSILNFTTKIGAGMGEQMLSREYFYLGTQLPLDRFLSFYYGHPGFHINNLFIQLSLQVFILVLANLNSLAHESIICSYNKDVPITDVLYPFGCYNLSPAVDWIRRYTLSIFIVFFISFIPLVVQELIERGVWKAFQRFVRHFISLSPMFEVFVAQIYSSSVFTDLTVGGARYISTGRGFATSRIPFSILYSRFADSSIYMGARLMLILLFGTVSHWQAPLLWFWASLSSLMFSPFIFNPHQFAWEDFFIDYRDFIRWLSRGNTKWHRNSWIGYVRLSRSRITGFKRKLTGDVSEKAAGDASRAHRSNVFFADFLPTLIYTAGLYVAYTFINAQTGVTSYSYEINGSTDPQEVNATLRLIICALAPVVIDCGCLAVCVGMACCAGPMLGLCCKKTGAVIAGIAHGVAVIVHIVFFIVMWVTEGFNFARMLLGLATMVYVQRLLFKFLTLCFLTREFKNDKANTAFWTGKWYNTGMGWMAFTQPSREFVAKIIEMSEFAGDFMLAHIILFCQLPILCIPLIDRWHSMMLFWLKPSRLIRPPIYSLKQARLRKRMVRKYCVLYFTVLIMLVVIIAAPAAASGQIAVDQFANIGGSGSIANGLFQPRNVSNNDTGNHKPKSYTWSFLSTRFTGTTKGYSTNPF
T1 sequence (B6S6L8 entry or part of it S80P): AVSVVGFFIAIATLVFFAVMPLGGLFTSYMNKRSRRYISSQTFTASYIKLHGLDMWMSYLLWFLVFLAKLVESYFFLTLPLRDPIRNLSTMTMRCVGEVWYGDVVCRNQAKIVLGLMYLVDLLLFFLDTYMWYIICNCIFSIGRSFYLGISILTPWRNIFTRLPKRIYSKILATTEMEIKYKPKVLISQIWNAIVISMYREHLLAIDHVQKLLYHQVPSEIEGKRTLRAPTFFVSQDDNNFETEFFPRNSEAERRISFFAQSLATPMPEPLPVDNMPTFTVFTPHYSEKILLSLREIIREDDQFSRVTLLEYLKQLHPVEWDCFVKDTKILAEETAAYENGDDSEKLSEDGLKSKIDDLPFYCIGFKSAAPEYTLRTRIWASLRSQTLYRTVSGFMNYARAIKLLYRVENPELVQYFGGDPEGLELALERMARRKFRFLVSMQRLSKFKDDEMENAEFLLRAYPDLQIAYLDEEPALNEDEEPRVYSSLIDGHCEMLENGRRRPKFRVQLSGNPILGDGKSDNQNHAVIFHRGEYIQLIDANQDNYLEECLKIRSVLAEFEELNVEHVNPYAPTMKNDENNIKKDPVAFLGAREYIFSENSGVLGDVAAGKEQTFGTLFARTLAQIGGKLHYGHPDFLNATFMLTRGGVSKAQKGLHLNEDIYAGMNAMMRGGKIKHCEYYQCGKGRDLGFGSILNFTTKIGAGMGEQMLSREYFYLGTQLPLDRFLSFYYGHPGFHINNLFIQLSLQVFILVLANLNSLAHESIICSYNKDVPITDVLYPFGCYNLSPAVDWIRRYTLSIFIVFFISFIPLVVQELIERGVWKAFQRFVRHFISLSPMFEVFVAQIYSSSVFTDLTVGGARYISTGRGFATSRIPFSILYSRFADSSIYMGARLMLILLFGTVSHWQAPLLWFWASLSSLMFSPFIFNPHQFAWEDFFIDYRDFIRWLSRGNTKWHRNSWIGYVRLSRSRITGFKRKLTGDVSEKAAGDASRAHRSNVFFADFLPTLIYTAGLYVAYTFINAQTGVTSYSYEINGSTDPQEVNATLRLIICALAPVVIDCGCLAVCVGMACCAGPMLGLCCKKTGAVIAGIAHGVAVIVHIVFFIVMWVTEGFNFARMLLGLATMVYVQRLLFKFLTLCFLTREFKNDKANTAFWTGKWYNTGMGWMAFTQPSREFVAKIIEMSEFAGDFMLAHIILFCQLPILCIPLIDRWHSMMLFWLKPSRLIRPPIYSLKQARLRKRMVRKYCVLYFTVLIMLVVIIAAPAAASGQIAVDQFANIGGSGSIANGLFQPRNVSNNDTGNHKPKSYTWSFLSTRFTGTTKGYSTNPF

Consider `CCCCCOc1ccc(-c2ccc(-c3ccc(C(=O)N[C@H]4C[C@@H](O)[C@@H](O)NC(=O)[C@@H]5[C@@H](O)[C@@H](C)CN5C(=O)[C@H]([C@@H](C)O)NC(=O)[C@H]([C@H](O)[C@@H](O)c5ccc(O)cc5)NC(=O)[C@@H]5C[C@@H](O)CN5C(=O)[C@H]([C@@H](C)O)NC4=O)cc3)cc2)cc1` [ANIDULAFUNGIN] ({pTerphenylCO(4''-OnC5H11)}-[Orn(4R-OH,5R-OH)]T[Hyp][hTyr(3S-OH,4S-OH)]T[Pro(3S-OH,4S-Me)]; lactam 1-C), for which the MIC (commonly the smallest concentration in the dilution series that meets the test's criterion for growth inhibition) is 2 µg/mL (≈ 1.75 µM) in the assay with Candida albicans [1]; 1 µg/mL (≈ 0.877 µM) in the assay with Candida tropicalis [4]; 2 µg/mL (≈ 1.75 µM) against Candida tropicalis [8]; 0.5 µg/mL (≈ 0.438 µM) in the assay with Candida tropicalis [11]; 0.03 µg/mL (≈ 0.0263 µM) against Candida albicans [12]; 0.06 µg/mL (≈ 0.0526 µM) against Candida tropicalis [13]. Also, in the assay with Candida tropicalis [14], the MIC came out at 0.12 µg/mL (≈ 0.105 µM). Besides, the IC50 (as a rule, the concentration that inhibits the measured activity by half) in [2] was 0.503 nM; in assay [3], 357 nM; in assay [5], 0.281 nM; in [6] it was 0.002689 µg/mL (≈ 0.00236 µM); in assay [7], 0.989 µg/mL (≈ 0.867 µM); in assay [9], 27.7 nM. Besides, the IC50 was 0.004661 µg/mL (≈ 0.00409 µM) in assay [10], 1.6 nM against Beta-1,3-glucan synthase and 205 nM in [15].
As to `CC[C@H](C)C[C@H](C)CCCCCCCCC(=O)N[C@H]1C[C@@H](O)[C@@H](NCCN)NC(=O)[C@@H]2[C@@H](O)CCN2C(=O)[C@H]([C@H](O)CCN)NC(=O)[C@H]([C@H](O)[C@@H](O)c2ccc(O)cc2)NC(=O)[C@@H]2C[C@@H](O)CN2C(=O)[C@H]([C@@H](C)O)NC1=O` [CASPOFUNGIN], the MIC is 8 µg/mL (≈ 7.32 µM) with Candida albicans [1]; 4 µg/mL (≈ 3.66 µM) with Candida tropicalis [4]; 4 µg/mL (≈ 3.66 µM) in the assay on Candida tropicalis [8]; 1 µg/mL (≈ 0.915 µM) in the assay with Candida tropicalis [11]; 0.12 µg/mL (≈ 0.11 µM) in the assay on Candida albicans [12]; 0.25 µg/mL (≈ 0.229 µM) against Candida tropicalis [13]. In the assay with Candida tropicalis [14], the MIC came to 0.5 µg/mL (≈ 0.457 µM). Besides, the IC50 is 0.271 nM in [2]; 241 nM in assay [3]; 0.28 nM in assay [5]; 0.007652 µg/mL (≈ 0.007 µM) in [6]; 0.2454 µg/mL (≈ 0.224 µM) in assay [7]; 70.3 nM in assay [9]. The values for the IC50 (in [10]; on Beta-1,3-glucan synthase; in assay [15]) were 0.002331 µg/mL (≈ 0.00213 µM), 0.457 nM and 338 nM, respectively.
Consider `OC(Cn1cncn1)(Cn1cncn1)c1ccc(F)cc1F` [FLUCONAZOLE], for which the minimum inhibitory concentration (MIC) against Candida tropicalis [4] stood at 32 µg/mL (≈ 104 µM); with Candida tropicalis [8], 8 µg/mL (≈ 26.1 µM); with Candida tropicalis [11], 0.5 µg/mL (≈ 1.63 µM); against Candida tropicalis [14], 0.25 µg/mL (≈ 0.816 µM).
The matching figures for `CCC(C)n1ncn(-c2ccc(N3CCN(c4ccc(OCC5COC(Cn6cncn6)(c6ccc(Cl)cc6Cl)O5)cc4)CC3)cc2)c1=O` (stereo not drawn) [ITRACONAZOLE]: 1 µg/mL (≈ 1.42 µM), 0.5 µg/mL (≈ 0.709 µM), 0.125 µg/mL (≈ 0.177 µM) and 0.25 µg/mL (≈ 0.354 µM).
As for `CCCCCOc1ccc(-c2cc(-c3ccc(C(=O)N[C@H]4C[C@@H](O)[C@@H](O)NC(=O)[C@@H]5[C@@H](O)[C@@H](C)CN5C(=O)[C@H]([C@H](O)CC(N)=O)NC(=O)[C@H]([C@H](O)[C@@H](O)c5ccc(O)c(OS(=O)(=O)O)c5)NC(=O)[C@@H]5C[C@@H](O)CN5C(=O)[C@H]([C@@H](C)O)NC4=O)cc3)no2)cc1` [MICAFUNGIN] (X1-[Orn(4R-OH,5R-OH)]T[Hyp][hTyr(3S-OH,4S-OH,3'-OSO3H)][Gln(3R-OH)][Pro(3S-OH,4S-Me)]; lactam 1-C), the MIC came out at 4 µg/mL (≈ 3.15 µM) with Candida albicans [1]; 2 µg/mL (≈ 1.57 µM) with Candida tropicalis [4]; 2 µg/mL (≈ 1.57 µM) against Candida tropicalis [8]; 0.5 µg/mL (≈ 0.394 µM) with Candida tropicalis [11]; 0.03 µg/mL (≈ 0.0236 µM) with Candida albicans [12]; 0.06 µg/mL (≈ 0.0472 µM) in the assay with Candida tropicalis [13]. Besides, the MIC with Candida tropicalis [14] was 0.06 µg/mL (≈ 0.0472 µM). For the same compound, the IC50 was 223 nM in assay [3]; 0.117 nM in assay [5]; 0.006168 µg/mL (≈ 0.00486 µM) in assay [6]; 1.085 µg/mL (≈ 0.854 µM) in assay [7]; 59.6 nM in assay [9]; 0.007545 µg/mL (≈ 0.00594 µM) in [10]. In addition, the results for the IC50 (at Beta-1,3-glucan synthase; in [15]) were 14.8 nM and 228 nM, respectively.
Consider `CC[C@@H]([C@H](C)O)n1ncn(-c2ccc(N3CCN(c4ccc(OC[C@@H]5CO[C@@](Cn6cncn6)(c6ccc(F)cc6F)C5)cc4)CC3)cc2)c1=O` [POSACONAZOLE], for which the minimum inhibitory concentration (MIC) stood at 1 µg/mL (≈ 1.43 µM) in the assay with Candida tropicalis [4], 0.25 µg/mL (≈ 0.357 µM) in the assay with Candida tropicalis [8], 0.06 µg/mL (≈ 0.0856 µM) against Candida tropicalis [11] and 0.25 µg/mL (≈ 0.357 µM) against Candida tropicalis [14].
`C[C@@H](c1ncncc1F)[C@](O)(Cn1cncn1)c1ccc(F)cc1F` [VORICONAZOLE]: the MIC amounted to 2 µg/mL (≈ 5.73 µM) with Candida tropicalis [4], 1 µg/mL (≈ 2.86 µM) in the assay on Candida tropicalis [8], 0.03 µg/mL (≈ 0.0859 µM) in the assay with Candida tropicalis [11] and 0.06 µg/mL (≈ 0.172 µM) in the assay on Candida tropicalis [14].
